Test system: serum-starved C2C12 myotubes
Test: release of radiolabeled phenylalanine (total protein degradation) from serum-starved C2C12 myotubes
Format: cell-based, murine
Settings: serum-free medium, 24 hours, vs serum (NC) and serum-free (NS) controls
Description: The role of EGCg alone and EGCg in combination with zinc in preventing muscle protein degradation was evaluated in an in vitro cell-based assay using serum-starved C2C12 myotubes, i.e., differentiated, elongated murine myoblasts, which are routinely used to model adult skeletal myofibers in cell culture. This assay measured the release of radiolabeled phenylalanine (Phe) from myotubes in response to a catabolic stimulus. Under normal growth conditions in the presence of growth factors supplied by 2% horse serum, the myotubes actively incorporated the amino acid Phe into newly synthesized muscle proteins. This is shown as the negative control for proteolysis (NC) in lane 1 of FIG. 1, i.e., the serum control. In the absence of the 2% horse serum, specifically C2C12 cultured in a serum-free DMEM medium, the muscle proteins began to break down, and phenylalanine was subsequently released as a free amino acid. This is shown as the serum-free, positive control for proteolysis (NS) in lane 2 of FIG. 1. […] 10 μM EGCg was added to serum-free and serum-starved myotubes alone, i.e., lane 3 of FIG. 1.
The experiment was replicated 2 times where n=6 over the same period of time for each sample, i.e., 24 hours for each sample. Results are expressed as mean±S.E.M and statistical analysis between groups was determined by one-way ANOVA followed by Tukey's test.

| Compound | total protein degradation (release of radiolabeled Phe) (10 μM EGCg alone, FIG. 1 lane 3) | total protein degradation (release of radiolabeled Phe) (10 μM zinc sulfate alone, FIG. 2 lane 3) |
| --- | --- | --- |
| O=C(O[C@@H]1Cc2c(O)cc(O)cc2O[C@@H]1c1cc(O)c(O)c(O)c1)c1cc(O)c(O)c(O)c1 [EGCg, epigallocatechin gallate] | greater inhibition of total protein degradation | – |
| O=S(=O)([O-])[O-].[Zn+2] [zinc, zinc sulfate] | – | promoted or increased total protein degradation |
